Assay results published in patent US11964014B2, “Vaccine adjuvants based on TLR receptor ligands” (priority 2019, dated 2024).

Experiments:
[1] = tested on: primary human peripheral blood mononuclear cells (PBMCs); experiment: Cytokine (IFNα, IL-12p70, TNFα) induction in human PBMCs stimulated with TLR agonists; assay type: cell-based; details: human PBMC
Protocol: IFNα and IL-12p70 responses were measured in primary human peripheral blood mononuclear cells (PBMCs) after exposure to various concentrations of oxoadenine compounds.
Liposomes were prepared using the thin film method: phospholipids (DOPC and cholesterol at 40 and 10 mg/mL respectively) and agonist(s) (TLR7/8 agonist fixed at 2 mg/mL) were dissolved in chloroform at the desired concentration in a round bottom flask. The solvent was removed under vacuum by rotary evaporation at 45° C., and the resulting dried film was placed in a vacuum chamber overnight to remove any residual solvent. Rehydration buffer was added to the dried film and the suspension was sonicated to resuspend the phospholipids and form the unilamellar vesicles. Sonication continued until the particle size was<200 nm, at which time the formulations were sterile filtered through a 0.22 μm PVDF filter. Concentrations of agonist(s) in the formulations was determined by RP-HPLC using a five-point standard curve. Human whole blood was collected from normal healthy donors at the University of Montana (Missoula, MT) using an Institutional Review Board approved protocol. […] Culture supernatants were analyzed for IL-12p70 and IFNα levels using human IL-12p70 DuoSet (R) ELISA kit (R&D Systems, Minneapolis, MN) and human IFNα VeriKine ELISA kit (Pestka Biomedical Laboratories, Inc., Piscataway, NJ).

[2] = tested on: monovalent (A/Victoria, H3N2) split flu antigen; assay type: in vivo, Balb/c mice; details: i.m.
[3] = tested on: CT26 cells (murine colon cancer cell line); experiment: CT26 syngeneic tumor model, tumor growth; assay type: in vivo; details: CT26 s.c. in female Balb/c mice; 10 μg or 50 μg IV once a week for two weeks, 2% glycerol in sterile water (FIG. 6A, 6B)
Protocol: Young, female Balb/c mice (approximately 8 weeks old) were implanted with 1×10^6 CT26 cells (murine colon cancer cell line, syngeneic in Balb/c mice) subcutaneously in the right flank. When tumors reached an average size of 75 mm^3 (11 days after CT26 cells were implanted), mice were randomized into treatment groups. Beginning on day 12, 10 μg or 50 μg of UM-1007 in an aqueous formulation (2% glycerol in sterile water) was injected IV once a week for two weeks.

In the case of `CCCCCCCCCCCCCCCC(=O)OC[C@H](COCCOCCOCCOP(=O)(O)OCCN1CCC(Cn2c(O)nc3c(N)nc(O[C@@H](C)CCC)nc32)CC1)OC(=O)CCCCCCCCCCCCCCC` [UM-1007], the “IFNα induction potency compared with the non-PEGylated oxoadenine Compound B” value ([1]; 24 h, liposomes, alone or in combination with TLR4 agonist CRX-601 (FIG. 2A)) is reported as “more potent IFNα inducer”, the “IL-12p70 induction potency relative to Compound B” value ([1]; combined with TLR4 agonist CRX-601 (FIG. 2B)) is reported as 125 fold and the “Anti-influenza IgG titers over antigen-only vaccinated animals” value ([2]; Balb/c mice, liposomes, 10 μg UM-1007 alone) is reported as 17 fold. For the same compound, the “Dose dependence of anti-influenza IgG titer enhancement” value ([2]; Balb/c mice, liposomes, 14dp2 (FIG. 3B)) was “enhanced titers in a dose-dependent manner”, the “Anti-influenza IgG titers over the antigen-alone group” value ([2]; Balb/c mice, liposomes, co-encapsulated with CRX-601 (TLR7/8:TLR4 ratio 10:1)) was greater than 25 fold and the “Anti-influenza IgG titers after a single vaccination” value ([2]; naïve Balb/c mice, liposomes alone or co-encapsulated with CRX-601, 14dp1 (FIG. 3A)) was “Strong anti-influenza IgG titers”. The “Tumor growth compared to treatment naive controls” value [3] was “slower tumor growth”.
